In patent US20150023920A1, “NOVEL COMPOSITIONS AND METHODS FOR PREVENTING OR TREATING CANCER METASTASIS” (Drexel University, priority 2012, published 2015):
“Also recorded” adds a separate entry of the source.

Assays:
[1] = tested on: production of interleukin-1β; details: cited from earlier work
IL-1β in PC3-ML cells = assay: IL-1β silencing by stable shRNA transduction in PC3-ML cells (Western blot, ELISA); type: cell-based, human; details: stable transduction of shRNA
Procedure: Mission TRC lentiviral shRNA vectors (Sigma-Aldrich) were used to knock down IL1-β. The following shRNA sequence was used:
Lentiviral particles were used to infect […] cell cultures, overnight in the presence of 8 μg/ml polybrene (Millipore). The successful infected cells were selected for the ability to proliferate in media containing G418 ([…]). The resulting cells were characterized by Western blot analysis using an antibody against IL1β.
(§1) Cell lysates were obtained and SDS-PAGE and Western Blot analysis performed as previously described, with few modifications. Membranes were blotted with antibodies targeting PDGFRα, PDGFRβ, IL1-β (SC-7884, Santa Cruz, Dallas, Tex.), Actin (A-2066, Sigma-Aldrich, St. Louis, Mo.), COX-2 (ab15191, AbCam, Cambridge, UK) Elafin (SC-20637, Santa Cruz) and GAPDH (DI6H11, Cell Signaling Technology, Beverly, Mass.). Primary antibody binding was detected using an HRP-conjugated secondary antibody (Pierce). Chemiluminescence signals were obtained using SuperSignal West Femto reagents (Pierce) and detected with the Fluorochem 8900 imaging system and relative software (Alpha Innotech).
The concentrations of IL-1β and CXCL6 were measured by ELISA as described in the manufacturers' protocols. […] The supernatant was then collected and the protein concentration was measured using Quantikine kits (R&D systems).

[2] = tested on: PC3-ML bone-metastatic prostate cancer cells; assay: Animal model of metastasis, intracardiac inoculation of cancer cells; type: in vivo, mouse; details: mice inoculated via systemic arterial circulation with shRNA-transduced PC3-ML cells, four weeks post-inoculation
Procedure: Five week-old male immunocompromised mice (CBI 7-SCRF) were obtained from Taconic and housed in a germ-free barrier. At six weeks of age, mice were anesthetized with 100 mg/kg ketamine and 20 mg/kg xylazine and successively inoculated in the left cardiac ventricle with cancer cells (5×10^4 in 100 μl of serum-free DMEM/F12). Cell inoculation was performed using a 30-gauge needle connected to a 1 ml syringe. The delivery of the cell suspension in the systemic blood circulation was validated by the co-injection of blue-fluorescent 10 μm polystyrene beads (Invitrogen-Molecular Probes). Animals were randomly assigned to different experimental groups and sacrificed at specified time points following inoculation. Organs were harvested and prepared as described below and tissue sections inspected blindly for metastatic lesions. The homogeneous and numerically-consistent distribution of the beads in adrenal glands and lungs collected at necropsy and inspected by fluorescence microscopy were used as discrimination criteria for the inclusion of animals in the studies. […]
Bright-field and fluorescent images of skeletal metastases were acquired using an Olympus stereomicroscope coupled to an Olympus DT70 CCD color camera. Digital images were analyzed with ImageJ software and calibrated for measurement by obtaining a pixel to millimeter ratio. […]

[3] = tested on: mouse models of acute gout; details: in vivo; cited from earlier work
[4] = tested on: COX-2 expression in human bone Mesenchymal Stem Cells (MSCs); assay: COX-2 expression in human MSCs exposed to PC3-ML conditioned medium (Western blot); type: cell-based; details: Anakinra 10 μg/ml pre-treatment 30 minutes; MSCs exposed 48 hours to PC3-ML conditioned medium
Procedure: Bone marrow-derived Human Mesenchymal Stem cells (MSCs) (Lonza, Allendale, N.J.) were used between passage 5 and 8 and cultured in MSC growth medium (α-MEM (Invitrogen) supplemented with 10% FBS, 1 ng/ml bFGF (R&D Systems, Minneapolis, Minn.), and 0.1% gentamicin).
as §1
Conditioned media were obtained according to Li et al., 2012, Cancer Disc. 2:840-55. In brief, 7.5×10^5 PC3-ML cells were plated in 15 ml of DMEM supplemented with 10% fetal bovine serum and 0.1% gentamicin and cultured for five days. The medium from each dish was then collected and centrifuged at 2000 rpm for 10 minutes and then used fresh as described below. […]

[5] = tested on: other members of the interleukin-1 family, including interleukin-1 alpha; details: cited from earlier work

CSc1ccc(-c2nn(Cc3ccccc3)c(=O)cc2-c2ccc(Cl)cc2)cc1 [K-832, 2-benzyl-5-(4-chlorophenyl)-6-[4-(methylthio)phenyl]-2H-pyridazin-3-one]
inhibitory activity against production of interleukin-1β [1]: high inhibitory activity

5′-CGGCCAGGATATAACTGACTT-3′ (listed as DNA, chemistry not given here) [shRNA, Mission TRC lentiviral shRNA used to knock down IL1-β in PC3-ML cells]
IL-1β expression in PC3-ML cells after silencing (IL-1β in PC3-ML cells): expression levels lower than PC3-N cells
reduction of size of bone-metastatic tumors [2]: approximately 70%

XOMA-052: potent anti-IL-1β humanized neutralizing antibody
activity in mouse models of acute gout [3]: active

Anakinra: recombinant, non-glycosylated version of human IL-1 receptor antagonist prepared from genetically modified E. coli
Increase in COX-2 expression in MSCs induced by PC3-ML conditioned medium [4]: completely prevent; also recorded: inhibited

Canakinumab: human monoclonal antibody targeted at interleukin-1 beta
cross-reactivity with other members of the interleukin-1 family, including interleukin-1 alpha [5]: no cross-reactivity
